# Results reported in patent US12522587B2, “Cancer treatments targeting cancer stem cells” (Remedy Plan, Inc., priority 2018, dated 2026).
# Legend:
# oct4 = assay: RT-qPCR of oct4 RNA in AGS cells; format: cell-based, human; details: 10 μM, 4 days, FIG. 2
# Experimental: Approximately 2.5×10^5 AGS cells were treated for 4 days with DMSO alone (no drug treatment) or 10 μM compound I-1 in DMSO. Cells were lysed and RNA was extracted using Zymo's Quick RNA-Microprep following manufacturer instructions. 100 ng of RNA were reverse transcribed using MuLV reverse transcriptase (New England Biolabs, USA). qPCR was performed using 2 ul of cDNA and Luna Universal qPCR Master Mix from NEB in a Stratagene Mx3005P.
# AGS gastric cancer cells were treated with either DMSO alone (no drug treatment) or compound I-1 at […] for 4 days. RNA was isolated and oct4 RNA levels were measured by RT-qPCR.
# [1] = Pharmacokinetic profile after oral gavage in mice; format: in vivo; details: male, CD1, mouse, single PO 100 mg/kg, plasma over 24 hours
# Experimental: The pharmacokinetic profile of compound I-1 was determined after oral gavage of 100 mg/kg in male CD1 mice (n=3), using freshly prepared formulations. Approximately 0.025 mL of blood were collected from the dorsal metatarsal vein at 15 min, 30 min, and 1, 2, 4, 6, 8, and 24 hr post dosing. Plasma concentrations of the drug were analyzed by LC/MS/MS method.
# Following a single PO (oral) injection in mice at 100 mg/kg, the concentration of compound I-1 was measured in the plasma over 24 hours. The half life was approximately 6 hours.
# A498 = assay: Growth inhibition of cancer cell lines; format: cell-based; details: Homo sapiens; A498, kidney carcinoma; 50% inhibition of growth
# Description: (§1) We tested the ability of compound I-1 to inhibit the growth of 12 additional cell lines, derived from a variety of different types of human cancer.
# A549 = assay: Growth inhibition of cancer cell lines; format: cell-based; details: Homo sapiens; A549, lung adenocarcinoma; 50% inhibition of growth
# Description: as §1
# CFPAC-1 = assay: Growth inhibition of cancer cell lines; format: cell-based; details: Homo sapiens; CFPAC-1, pancreatic adenocarcinoma; 50% inhibition of growth
# Description: as §1
# Colo205 = assay: Growth inhibition of cancer cell lines; format: cell-based; details: Homo sapiens, COLO 205; Colo205, Dukes' type D, colorectal adenocarcinoma; 50% inhibition of growth
# Description: as §1
# DLD-1 = assay: Growth inhibition of cancer cell lines; format: cell-based; details: Homo sapiens; DLD-1, Dukes' type C, colorectal adenocarcinoma; 50% inhibition of growth
# Description: as §1
# GIST T1 = assay: Growth inhibition of cancer cell lines; format: cell-based; details: Homo sapiens, GISTT1; GIST T1, gastrointestinal stromal tumor; 50% inhibition of growth
# Description: as §1
# IGROV-1 = assay: Growth inhibition of cancer cell lines; format: cell-based; details: Homo sapiens; IGROV-1, ovarian adenocarcinoma; 50% inhibition of growth
# Description: as §1
# MCF-7 = assay: Growth inhibition of cancer cell lines; format: cell-based; details: Homo sapiens, MCF7; MCF-7, breast cancer; 50% inhibition of growth
# Description: as §1
# MiaPaca-2 = assay: Growth inhibition of cancer cell lines; format: cell-based; details: Homo sapiens, MIA PaCa-2; MiaPaca-2, pancreatic carcinoma; 50% inhibition of growth
# Description: as §1
# NCI-H69 = assay: Growth inhibition of cancer cell lines; format: cell-based; details: Homo sapiens; NCI-H69, small cell lung cancer; 50% inhibition of growth
# Description: as §1
# PC-3 = assay: Growth inhibition of cancer cell lines; format: cell-based; details: Homo sapiens; PC-3, prostate adenocarcinoma; 50% inhibition of growth
# Description: as §1
# RL = assay: Growth inhibition of cancer cell lines; format: cell-based; details: Homo sapiens, non-Hodgkin's lymphoma, 50% inhibition of growth
# Description: as §1
# UACC-62 = assay: Growth inhibition of cancer cell lines; format: cell-based; details: Homo sapiens; UACC-62, melanoma; 50% inhibition of growth
# Description: as §1
# HepG2 = assay: Growth inhibition of additional cancer cell lines; format: cell-based; details: Homo sapiens; HepG2, Liver; 50% inhibition of growth
# Description: (§2) We tested the ability of compound I-1 to inhibit the growth of 11 additional cell lines, derived from a variety of different types of human cancer.
# MM.1R = assay: Growth inhibition of additional cancer cell lines; format: cell-based; details: Homo sapiens, Hematopoietic-B-cell myeloma, 50% inhibition of growth
# Description: as §2
# NALM-6 = assay: Growth inhibition of additional cancer cell lines; format: cell-based; details: Homo sapiens; NALM-6, Heme (B-cell precursor leukemia, ALL); 50% inhibition of growth
# Description: as §2
# NCI-H520 = assay: Growth inhibition of additional cancer cell lines; format: cell-based; details: Homo sapiens; NCI-H520, NSCLC; 50% inhibition of growth
# Description: as §2
# RL95-2 = assay: Growth inhibition of additional cancer cell lines; format: cell-based; details: Homo sapiens; RL95-2, Uterus/endometrium; 50% inhibition of growth
# Description: as §2
# Raji = assay: Growth inhibition of additional cancer cell lines; format: cell-based; details: Homo sapiens, Heme (Burkitt's lymphoma), 50% inhibition of growth
# Description: as §2
# Ramos (RA 1) = assay: Growth inhibition of additional cancer cell lines; format: cell-based; details: Homo sapiens, Hematopoietic-Burkitt's B-cell lymphoma, 50% inhibition of growth
# Description: as §2
# SR = assay: Growth inhibition of additional cancer cell lines; format: cell-based; details: Homo sapiens, Heme (large cell immunoblastic lymphoma-unknown B or T cell origin), 50% inhibition of growth
# Description: as §2
# SU-DHL-10 = assay: Growth inhibition of additional cancer cell lines; format: cell-based; details: Homo sapiens, SU-DHL10; SU-DHL-10, Hematopoietic-large B-cell lymphoma; 50% inhibition of growth
# Description: as §2
# SW620 = assay: Growth inhibition of additional cancer cell lines; format: cell-based; details: Homo sapiens, SW-620; SW620, Colon; 50% inhibition of growth
# Description: as §2
# Thp1 = assay: Growth inhibition of additional cancer cell lines; format: cell-based; details: Homo sapiens, THP-1; Thp1, Heme (acute monocytic leukemia); 50% inhibition of growth
# Description: as §2
compound,measurement,setting,value
CCC(=O)N1CCc2cc(-c3ccc(C(=O)NCc4cccnc4)cc3)ccc21 [Compound I-1],oct4 expression in gastric cancer cells,oct4,decreased
same,half-life,[1],~6 h
same,IC50,A498,> 10 µM
same,IC50,A549,> 10 µM
same,IC50,CFPAC-1,8.24 µM
same,IC50,Colo205,> 10 µM
same,IC50,DLD-1,> 10 µM
same,IC50,GIST T1,0.98 µM
same,IC50,IGROV-1,4.54 µM
same,IC50,MCF-7,6 µM
same,IC50,MiaPaca-2,3.38 µM
same,IC50,NCI-H69,1.5 µM
same,IC50,PC-3,5.52 µM
same,IC50,RL,0.13 µM
same,IC50,UACC-62,> 10 µM
same,IC50,HepG2,4.02 µM
same,IC50,MM.1R,5.44 µM
same,IC50,NALM-6,0.675 µM
same,IC50,NCI-H520,3.66 µM
same,IC50,RL95-2,2.5 µM
same,IC50,Raji,2.52 µM
same,IC50,Ramos (RA 1),3.41 µM
same,IC50,SR,0.489 µM
same,IC50,SU-DHL-10,2.61 µM
same,IC50,SW620,2.79 µM
same,IC50,Thp1,5.17 µM
